Laboratory results as given in US20100227841A1, “Patient populations and treatment methods” (Harbor BioSciencs, Inc., priority 2008, published 2010).

Experiments:
[1] = test system: pre-diabetic hyperglycemic patients and patients having type 2 diabetes; experiment: Biomarkers in 28-day clinical trial (serum CRP, adipokines; cytokines from LPS stimulated PBMC by ELISA); format: in vivo, human
Protocol: Groups of pre-diabetic hyperglycemic patients and patients having type 2 diabetes were treated for 28 days with the experimental drug 17α-ethynylandrost-5-ene-3β,7β,17β-triol (oral capsules) or with placebo. Dosages for the pre diabetic patients were 0 mg per day (placebo control; n=10), 5 mg once per day (n=9; cohort 1), 5 mg twice per day (n=8; cohort 2) or 10 mg twice per day (n=7; cohort 3). Placebos were obtained with each treatment cohort based on protocol randomization of 2 treated:1 placebo. The pre-diabetic patients were obese (body mass index ≧29 kg/m^2) and glucose intolerant (fasting plasma glucose <126 mg/dL; 2-hr post prandial glucose 140-200 mg/dL after 75 g oral glucose). The diabetic patients were dosed with 10 mg/day for 28 days (n=6; cohort 6). The glucose clamp protocol was performed on groups of patients dosed with 10 mg/day or 20 mg/day of drug at baseline, one day before drug treatment started (day −1), and one day after the last day of dosing with the drug (day 29). Patients with an M value of <5 mg glucose/kg/min (M<5) were considered insulin resistant and patients with an M value of >5 mg glucose/kg/min (M>5) were considered insulin sensitive or essentially normal for whole body glucose metabolism.
Levels of cytokine biomarkers from patients with M values measured by glucose clamp such as MCP1, TNFα, IL-6 and IL-1β were measured by ELISA as the amount of cytokine secreted from LPS stimulated peripheral blood mononuclear cells from the patients at baseline (day −1) and at 1 day after the last day of drug dosing (day 29). Levels of RBP4 and CRP protein were measured from patient serum.
The analysis of responders used standard analysis. Due to the cohort sizes and the ongoing basis of this clinical protocol, data for surrogates that corresponded to significance at p≦0.10 (trend) were considered positive evidence of surrogacy of the biomarker for the M<5 insulin resistant condition.

type 2 diabetes patients = experiment: Phase 2 monotherapy protocol in treatment naive type 2 diabetes patients; format: in vivo, human
Protocol: A phase 2 clinical treatment protocol was conducted in type 2 diabetes patients using a monotherapy consisting of 17α-ethynylandrost-5-ene-3β,7β,17β-triol. The patients had not been treated with another antidiabetic agent or any insulin sensitizer such as metformin for at least 90 days before the start of dosing. […] The patients (n=51) received 10 mg/day of 17α-ethynylandrost-5-ene-3β,7β,17β-triol (5 mg twice per day) for 84 days and were then followed until day 112. Effects of treatment were examined in subsets of patients having differing BMI values.

[2] = cohort 2, 3 and 6 M<5 patients vs M>5 patients, p<0.03

Q: C#C[C@]1(O)CC[C@H]2[C@@H]3[C@@H](O)C=C4C[C@@H](O)CC[C@]4(C)[C@H]3CC[C@@]21C [17α-ethynylandrost-5-ene-3β,7β,17β-triol] was tested. Which adiponectin ([1]; M<5 drug treated patients) did it give?
A: The adiponectin was “not affected”.

Q: And the Resistin ([1]; M<5 drug treated subjects)?
A: Its Resistin is “increased much less”.

Q: What about the “decrease in CRP” value ([1]; M<5 patients compared to M>5 patients, p=0.094 exact Mann-Whitney) of the same molecule?
A: The value was “significant”.

Q: And the Leptin ([1]; all drug treated cohorts (decreased in placebo patients))?
A: Its Leptin is “increased”.

Q: And the “IL-1β (LPS stimulated PBMC)” value [1, 2]?
A: The value was “highly significant decrease”.

Q: What about the “IL-6 (LPS stimulated PBMC)” value [1, 2] of the same molecule?
A: The value was “highly significant decrease”.

Q: What about the “MCP1 (LPS stimulated PBMC)” value [1, 2] of the same molecule?
A: The value was “highly significant decrease”.

Q: What about the “TNFα (LPS stimulated PBMC)” value [1, 2] of the same molecule?
A: Its value is “highly significant decrease”.

Q: What about the Leptin ([1]; cohort 6 (diabetic patients, 10 mg/day), p=0.002) of the same molecule?
A: Its Leptin is “significantly increased”.

Q: What about the “TNFα (LPS stimulated PBMC)” value ([1]; day 29, drug treated M<5 vs drug treated M>5 patients, p=0.075) of the same molecule?
A: The value was “greater decrease”.

Q: What about the “MCP1 (LPS stimulated PBMC)” value ([1]; day 29, drug treated M<5 vs drug treated M>5 patients, p=0.093) of the same molecule?
A: Its value is “greater decrease”.

Q: And the Resistin ([1]; drug treated subjects vs placebo control patients)?
A: Its Resistin is “increased less”.

Q: And the CRP ([1]; insulin resistant subjects (M<5) compared to placebo-treated subjects, p=0.018 exact Mann-Whitney)?
A: Its CRP is “significantly decreased”.

Q: And the C-reactive protein (type 2 diabetes patients; BMI greater than 31.3 kg/m^2, day 57, p=0.053)?
A: Its C-reactive protein is “trend to decreased”.

Q: What about the “patients with decreased HbA1c to <7%” value (type 2 diabetes patients; BMI greater than 31.3 kg/m^2, day 84, placebo 0/14) of the same molecule?
A: Its value is 2/9.

Q: What about the “decreases in serum MCP-1” value (type 2 diabetes patients; BMI greater than 31.3 kg/m^2, days 29, 57 and 84) of the same molecule?
A: Its value is greater than 600 pg/mL.

Q: And the “observed effects in lower BMI subset” value (type 2 diabetes patients; patients having a BMI of less than about 31)?
A: The value was “less pronounced”.

Q: What about the HbA1c decrease (type 2 diabetes patients; patients with BMI greater than 31.3 kg/m^2 (n=22), 10 mg/day for 84 days, day 112, p=0.041) of the same molecule?
A: Its HbA1c decrease is 1.1%.
